Source: publication PMC7279038, “Antioxidant and Neuroprotective Effects Induced by Cannabidiol and Cannabigerol in Rat CTX-TNA2 Astrocytes and Isolated Cortexes” (International Journal of Molecular Sciences, 2020)

Experiments:
[1] = system: isolated rat cortexes, 5HIIA/5-HT ratio; assay: K+ 60 mM neurotoxicity paradigm, 5-HT turnover; conditions: CBD 1000 nM, CBG 1 nM
Protocol: (§1) Sprague–Dawley rats (200–250 g) were sacrificed by CO2 inhalation (Italian Health Ministry authorization N. F4738.N.XTQ, delivered on 11th November 2018) and isolated prefrontal cortex specimens were immediately explanted and incubated in thermostatic shaking bath at 37 °C for 1 h (incubation period), in Krebs–Ringer buffer at the following K^+ concentrations:
(§2) Cortexes were stimulated with CBD (1000 nM) and CBD (1 nM). Afterwards, specimens were homogenized in perchloric acid solution (0.05 M) for the extraction and quantification of nitrites, via the aforementioned colorimetric Griess assay, and serotonin (5-HT), 5-hydroxyindoleacetic (5HIIA),3-hydroxykinurenine (3-HK) and kinurenic acid (KA) (ng/mg wet tissue) via high performance liquid chromatography analysis. […]
Tissue 3-HK, 5-HT and 5HIIA levels were analyzed through an HPLC apparatus consisting of a Jasco (Tokyo, Japan) PU-2080 chromatographic pump and an ESA (Chelmsford, MA, USA) Coulochem III coulometric detector, equipped with a microdialysis cell (ESA-5014b), a porous graphite working electrode and a solid state palladium reference electrode. The analytical conditions for identification and quantification were selected according to previous studies. […] The chromatograms were monitored at the analytical detector 2. […] Sample concentrations were calculated by linear regression curve (y = bx + m) obtained with standard. […]

[2] = system: 5-HT receptor (5-HT1A); conditions: cited from earlier work
[3] = system: histone H2B; assay: Untargeted proteomic analysis of cortexes, H2B; set-up: species or system rat; conditions: CBD 1000 nM, CBG 1 nM
Protocol: as §1
as §2, with “analysis. Additionally, an untargeted proteomic analysis was carried out on the cortex homogenate. The analytical protocols for 5-HT, 5HIIA, 3-HK, KA and protein level determinations are described below.” for “analysis.”
After protein quantification, a volume corresponding to 50 μg of proteins was loaded onto a Nanosep 10-kDa-cutoff filter (Pall Corporation, Michigan, USA) and digested according to the protocol we routinely use in our laboratory, adapted from Distler et al. Briefly, the sample was washed twice with 200 μL urea buffer (8M urea, 100 mM Tris pH 8.5 in milliQ water) to remove the detergents present in the lysis buffer. […]

[4] = system: isolated rat prefrontal cortex, 5-HT; assay: H2O2-induced reduction in 5-HT level in isolated cortexes; conditions: hydrogen peroxide 300 µM; CBD 1000 nM, CBG 1 nM
Protocol: Sprague–Dawley rats (200–250 g) were sacrificed by CO2 inhalation and isolated prefrontal cortex specimens were immediately explanted and exposed to 300 µM H2O2 and different concentrations of CBD (1–1000 nM) and CBG (1–1000 nM) for one hour, at 37 °C. The nitrite concentration in the resuspension buffer was determined by colorimetric Griess assay. Specifically, cortex specimens were homogenized for 2 min with Potter–Elvehjem homogenizer in 2 mL DMEM buffer. The homogenate was centrifuged at 4500 g for 10 min and nitrite production was determined in the supernatant fraction by mixing 50 µL of the assay buffer with 50 µL of Griess reagent (1.5% sulfanilamide in 1M HCl plus 0.15% N-(1-naphthyl) ethylenediamine dihydrochloride in distilled water, v/v). After 10 min incubation at room temperature, the absorbance at 540 nm was determined and nitrite concentrations were calculated from a sodium nitrite standard curve. […]
Tissue 3-HK, 5-HT and 5HIIA levels were analyzed through an HPLC apparatus consisting of a Jasco (Tokyo, Japan) PU-2080 chromatographic pump and an ESA (Chelmsford, MA, USA) Coulochem III coulometric detector, equipped with a microdialysis cell (ESA-5014b), a porous graphite working electrode and a solid state palladium reference electrode. The analytical conditions for identification and quantification were selected according to previous studies. […]

Row | SMILES | effect on K+ 60 mM-induced increase in 5-HT turnover (5HIIA/5-HT ratio) [1] | effect on 5-HT1A activity [2] | effect on K+ 60 mM-induced reduction in H2B level [3] | effect on H2O2-induced 5-HT depletion [4]
1 | C=C(C)[C@@H]1CCC(C)=C[C@H]1c1c(O)cc(CCCCC)cc1O [CBD, Cannabidiol] | able to prevent the 5-HT depletion | activated | effective in counteracting the downregulation | blunting effect on 5-HT depletion
2 | CCCCCc1cc(O)c(C/C=C(\C)CCC=C(C)C)c(O)c1 [CBG, cannabigerol] | able to prevent the 5-HT depletion | moderately antagonized | effective in counteracting the downregulation | same effect at the concentration of 1 nM
